Measurements as given in patent US9249085B2, “Aniline derivatives, their preparation and their therapeutic application” (FOVEA PHARMACEUTICALS, priority 2011, dated 2016).
Values after ≈ are worked out from the molar mass of the structure shown.

Key:
[1] = Solubility at equilibrium; assay type: physicochemical; conditions: thermodynamic from solid; in the diluent, room temperature, n=1, HPLC quantification
Protocol: Solubility of the test materials was evaluated on n=1 trial, following the procedure below:
2.5 mg of each compound for solubility testing were dissolved in 5 mL of the diluent, an initial concentration of 500 ug/mL. The mixture was first vortexed for 15 seconds to allow a good wetting of the API, then sonicated for 5 minutes to promote solubilisation. The vortex/sonication cycle was repeated 3 times. The suspension was stirred at room temperature using a magnetic stirrer at 300 rpm. This mixture is observed at 4 h, 24 h and 48 h to determine if the test compound has dissolved. At each time point if the compound is completely solubilised a further 5 mg of the test compound is added and the process repeated.
When no more test compound will dissolve in the diluent, an aliquot of 0.5 mL of the suspension was withdrawn and centrifuged 3×2 min at 13400 rpm. The supernatant for HPLC quantification was filtered using 0.2 μm Pall Aerodisc Nylon 13 mm membrane and quantified by comparing to the calibration curve, using the method: column: Nucleodur C18 ISIS 3 μm 4.6×125 mm, Mobile Phase (CH3COOH 0.05% in H2O and ACN), Flow rate: 1 ml/min, Wavelength: λ=240 nm (IIa and IIc) or […] (IId), Injected volume: 10 μl, Gradient of concentration: from 30% B to 100% B in 6 min.

[2] = biological target: recombinant human prostanoid EP2 receptor (Homo sapiens (Human), UniProt P43116); assay: Human prostanoid EP2 receptor cellular functional assay (cAMP, HTRF); assay type: cell-based
recombinant human prostanoid EP2 receptor, sequence (P43116 whole entry): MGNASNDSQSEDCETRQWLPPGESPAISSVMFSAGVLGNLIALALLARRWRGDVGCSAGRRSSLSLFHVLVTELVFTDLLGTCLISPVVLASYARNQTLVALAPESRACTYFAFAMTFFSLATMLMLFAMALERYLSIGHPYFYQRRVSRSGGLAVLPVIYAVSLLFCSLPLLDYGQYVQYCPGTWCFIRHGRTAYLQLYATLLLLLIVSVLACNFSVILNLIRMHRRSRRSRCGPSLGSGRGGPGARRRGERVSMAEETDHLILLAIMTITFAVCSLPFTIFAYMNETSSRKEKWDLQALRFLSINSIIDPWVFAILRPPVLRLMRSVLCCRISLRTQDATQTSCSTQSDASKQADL
Protocol: Test 1.2: Human Prostanoid EP2 Receptor Cellular Functional Assay
Human CHO cells expressing the recombinant human prostanoid EP2 receptor were suspended in assay medium (HBSS buffer (Invitrogen) containing 20 mM HEPES (pH7.4) and 500 μM isobutyl-methylxanthine IBMX) and plated out to yield approximately 1×10^4 cells/well in a 96-well. Following this, cells were incubated with agonists for 30 min in the presence of the test compounds. For stimulated control measurements, separate assay wells contain 10 μM PGE2 (control specific agonist). All incubations were carried out at 37° C. in a 5% CO2 atmosphere. Following incubation, the amount of cAMP in each well was determined by HTRF method. The cells are lysed and the fluorescence acceptor (D2-labeled cAMP) and fluorescence donor (anti-cAMP antibody labeled with europium cryptate) are added. After 60 min at room temperature, the fluorescence transfer is measured at λ ex=337 nm and λ em=620 and 665 nm using a microplate reader (Rubystar, BMG).
The cAMP concentration is determined by dividing the signal measured at 665 nm by that measured at 620 nm (ratio).
The standard reference agonist PGE2 was tested at several concentrations to generate a concentration-response curve to determined EC50.
Analysis and Expression of Results
The results are expressed as a percent of control specific agonist response ((measured specific response/control specific agonist response)×100) obtained in the presence of the test compounds. The EC50 values (concentration producing a half-maximal specific response) were determined by non-linear regression analysis of the concentration-response curves generated with mean replicate values using Hill equation curve fitting (Y=D+[(A−D)/(1+(C/C50)nH)], where Y=specific response, D=minimum specific response, A=maximum specific response, C=compound concentration, and C50=EC50 and nH=slope factor). This analysis was performed using a software developed at Cerep (Hill software) and validated by comparison with data generated by the commercial software SigmaPlot® 4.0 for Windows® (© 1997 by SPSS Inc.).

[3] = test system: Laser-Induced Hypertensive Cynomolgus Monkey; assay: Intraocular pressure in laser-induced hypertensive cynomolgus monkey; assay type: in vivo; conditions: 0.01% topical, 50 μl drop to glaucomatous eye once daily for 5 days; FIG. 1
Protocol: Laser-Induced Hypertensive Cynomolgus Monkey
Ten adult female cynomolgus monkeys, each weighing 3-5 kg, in which glaucoma had been induced unilaterally by diode laser photocoagulation of the mid-trabecular meshwork, were used in this study.
Intraocular pressure (IOP) was measured at 0 hr (before drug administration) and then hourly until 6 hrs after drug administration on one baseline day, one vehicle-treatment day, and treatment days 1, 3, and 5 with 0.01% of compound II(d).
Compound II(d) was tested in two groups of 4 monkeys for a total of 8 monkeys. Following one baseline day (untreated) and one vehicle-treatment day (50 μl (25 μl×2), drop of vehicle to the glaucomatous eye at 9:30 (a 50 μl drop (25 μl×2) of compound (II(d)) were topically applied to the glaucomatous eye only once daily at 9:30 am for 5 consecutive days.
Slit-lamp examination for the detection of aqueous humor flare and cells was performed in a dark room before drug administration and at 1, 3 and 5 hrs after dosing on baseline day and at the same times on treatment days 1, 3 and 5.
Two-tailed paired and unpaired t test and the ANOVA test were used for statistical analysis.

SMILES	solubility [1] [µg/mL]	EC50 ([2]; CHO cells expressing recombinant human EP2, cAMP by HTRF, 30 min, 37° C., read-out: In vitro functional assay EP2 (h) EC50) [nM]	In vitro functional assay EP2 (h) % response ([2]; percent of control specific agonist response (10 μM PGE2)) [%]	overall IOP reduction [3] [%]
CCOC(=O)COc1ccc(F)c(NCc2cc(-c3cccc(F)c3)ccc2F)c1F [II(a), ethyl 2-[2,4-difluoro-3-[[2-fluoro-5-(3-fluorophenyl)phenyl]methylamino]phenoxy]acetate]	8120 (≈ 18.7 mM)			
COC(=O)COc1ccc(F)c(NCc2cc(-c3cccc(F)c3)ccc2F)c1F [II(c), Methyl 2-[2,4-difluoro-3-[[2-fluoro-5-(3-fluorophenyl)phenyl]methylamino]phenoxy]acetate]	6780 (≈ 16.2 mM)			
CC(C)OC(=O)COc1ccc(F)c(NCc2cc(-c3cccc(F)c3)ccc2F)c1F [II(d), Isopropyl 2-[2,4-difluoro-3-[[2-fluoro-5-(3-fluorophenyl)phenyl]methylamino]phenoxy]acetate]	711 (≈ 1.59 mM)	> 300	44	22
O=C(O)COc1cccc(CN(Cc2ccc(-n3cccn3)cc2)S(=O)(=O)c2cccnc2)c1 [PF-04217329, taprenepag, reference compound]	542 (≈ 1.13 mM)			
